Reference: the supplement of paper PMC10307832

Tests used:
Experiment in all cases: relative viability (nuclei count vs DMSO), 5 days (fraction); higher = more cells survive
PAC-1 + Trametinib = compound: C=CCc1cccc(/C=N/NC(=O)CN2CCN(Cc3ccccc3)CC2)c1O [PAC-1] + CC(=O)Nc1cccc(-n2c(=O)n(C3CC3)c(=O)c3c(Nc4ccc(I)cc4F)n(C)c(=O)c(C)c32)c1 [Trametinib] (partner 0.02 µM)
In short: (§1)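 Dosing by pin tool came one day after lung cancer cell lines were seeded in 1536-well plates, using either one drug or a fixed anchor-drug dose plus five library-drug doses (not always all listed) in √10 steps. After 5 days, nuclei were counted on 4× images. Relative viability is treated-well nuclei count divided by vehicle-well nuclei count, and values are medians of duplicate plates.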

BMX-IN-1 + Pictilisib = compound: C=CC(=O)Nc1cc(-n2c(=O)ccc3cnc4ccc(-c5ccc(NS(C)(=O)=O)cc5)cc4c32)ccc1C [BMX-IN-1] + CS(=O)(=O)N1CCN(Cc2cc3nc(-c4cccc5[nH]ncc45)nc(N4CCOCC4)c3s2)CC1 [Pictilisib] (partner 1 µM)
In short: as §1

Ibrutinib + Olaparib = compound: C=CC(=O)N1CCC[C@@H](n2nc(-c3ccc(Oc4ccccc4)cc3)c3c(N)ncnc32)C1 [Ibrutinib] + O=C(c1cc(Cc2n[nH]c(=O)c3ccccc23)ccc1F)N1CCN(C(=O)C2CC2)CC1 [Olaparib] (partner 8 µM)
In short: as §1

BMX-IN-1 + Pemetrexed = compound: C=CC(=O)Nc1cc(-n2c(=O)ccc3cnc4ccc(-c5ccc(NS(C)(=O)=O)cc5)cc4c32)ccc1C [BMX-IN-1] + Nc1nc2[nH]cc(CCc3ccc(C(=O)N[C@@H](CCC(=O)O)C(=O)O)cc3)c2c(=O)[nH]1 [Pemetrexed] (partner 0.2 µM)
In short: as §1

Cell Line	relative viability (PAC-1 + Trametinib; first compound 0.02 µM)	relative viability (PAC-1 + Trametinib; first compound 0.06325 µM)	relative viability (PAC-1 + Trametinib; first compound 0.2 µM)	relative viability (PAC-1 + Trametinib; first compound 2 µM)	relative viability (BMX-IN-1 + Pictilisib; first compound 0.02 µM)	relative viability (BMX-IN-1 + Pictilisib; first compound 0.2 µM)	relative viability (BMX-IN-1 + Pictilisib; first compound 0.6325 µM)	relative viability (BMX-IN-1 + Pictilisib; first compound 2 µM)	relative viability (Ibrutinib + Olaparib; first compound 0.005 µM)	relative viability (Ibrutinib + Olaparib; first compound 0.01581 µM)	relative viability (Ibrutinib + Olaparib; first compound 0.05 µM)	relative viability (Ibrutinib + Olaparib; first compound 0.1581 µM)	relative viability (Ibrutinib + Olaparib; first compound 0.5 µM)	relative viability (BMX-IN-1 + Pemetrexed; first compound 0.02 µM)	relative viability (BMX-IN-1 + Pemetrexed; first compound 0.2 µM)	relative viability (BMX-IN-1 + Pemetrexed; first compound 0.6325 µM)	relative viability (BMX-IN-1 + Pemetrexed; first compound 2 µM)
NCI-H520	0.747	0.746	0.64	0.797	0.376	0.299	0.304	0.278	0.417	0.334	0.377	0.298	0.35	0.762	0.853	0.686	0.762
NCI-H596	0.704	0.802	0.801	0.87	0.382	0.379	0.405	0.343	1.09	0.635	0.68	0.668	0.723	0.497	0.522	0.496	0.511
NCI-H647	0.456	0.535	0.446	0.399	0.498	0.356	0.396	0.471	0.638	0.387	0.62	0.57	0.637	0.162	0.169	0.15	0.142
NCI-H650	0.871	1.02	0.933	1.27	1.02	0.826	0.872	0.772	0.423	0.432	0.385	0.506	0.459	0.926	0.961	0.956	0.919
NCI-H661	0.585	0.591	0.581	0.585	0.349	0.436	0.368	0.316	0.716	0.706	0.719	0.773	0.579	1.02	0.96	0.961	0.899
NCI-H838	0.46	0.509	0.459	0.528	0.535	0.444	0.598	0.472	0.794	0.693	0.849	0.866	0.825	0.255	0.244	0.237	0.236
NCI-H1355	0.464	0.467	0.416	0.419	0.374	0.443	0.487	0.434	–	0.664	0.77	0.73	0.661	1.1	1.1	1.06	1.04
NCI-H1395	1.1	1	0.976	0.974	0.82	1.02	0.701	0.61	0.475	0.472	0.469	0.468	0.449	0.877	0.976	0.722	0.756
NCI-H1437	0.555	0.511	0.494	0.525	0.455	0.391	0.425	0.462	0.681	0.626	0.721	0.641	0.628	0.351	0.285	0.34	0.292
NCI-H1650	0.538	0.54	0.335	0.542	0.776	0.675	0.705	0.548	0.73	0.836	0.805	0.822	0.754	0.354	0.354	0.541	0.325
NCI-H1651	0.85	0.862	0.765	0.855	0.658	0.754	0.741	0.595	0.193	0.183	0.173	0.176	0.185	0.391	0.642	0.781	0.486
NCI-H1666	0.909	0.868	0.862	0.914	0.404	0.365	0.428	0.396	0.844	0.672	0.772	0.694	0.703	0.908	0.881	0.877	0.867
NCI-H1734	0.692	0.774	0.644	0.644	0.529	0.541	0.488	0.432	0.57	0.629	0.788	0.67	0.592	0.451	0.409	0.407	0.377
NCI-H1755	0.815	0.767	0.783	0.733	0.446	0.541	0.498	0.423	0.921	0.886	0.88	0.926	0.894	0.41	0.6	0.39	0.552
NCI-H1792	0.475	0.402	0.392	0.468	0.321	0.299	0.227	0.253	–	0.506	0.402	0.353	0.379	0.903	1.28	0.885	1.17
NCI-H1793	0.363	0.423	0.39	0.405	0.306	0.309	0.365	0.279	0.669	0.562	0.582	0.833	0.4	0.945	1.01	0.966	0.806
NCI-H1915	0.304	0.303	0.303	0.33	0.953	0.898	1.14	1.04	0.283	0.256	0.257	0.281	0.241	0.585	0.522	0.484	0.396
NCI-H1944	0.414	0.393	0.433	0.444	0.386	0.352	0.387	0.336	0.411	0.404	0.413	0.387	0.359	0.632	0.746	0.603	0.592

Cell Line	relative viability (PAC-1 + Trametinib; first compound 0.02 µM)	relative viability (PAC-1 + Trametinib; first compound 0.06325 µM)	relative viability (PAC-1 + Trametinib; first compound 0.2 µM)	relative viability (PAC-1 + Trametinib; first compound 2 µM)	relative viability (BMX-IN-1 + Pictilisib; first compound 0.02 µM)	relative viability (BMX-IN-1 + Pictilisib; first compound 0.2 µM)	relative viability (BMX-IN-1 + Pictilisib; first compound 0.6325 µM)	relative viability (BMX-IN-1 + Pictilisib; first compound 2 µM)	relative viability (Ibrutinib + Olaparib; first compound 0.005 µM)	relative viability (Ibrutinib + Olaparib; first compound 0.01581 µM)	relative viability (Ibrutinib + Olaparib; first compound 0.05 µM)	relative viability (Ibrutinib + Olaparib; first compound 0.1581 µM)	relative viability (Ibrutinib + Olaparib; first compound 0.5 µM)	relative viability (BMX-IN-1 + Pemetrexed; first compound 0.02 µM)	relative viability (BMX-IN-1 + Pemetrexed; first compound 0.2 µM)	relative viability (BMX-IN-1 + Pemetrexed; first compound 0.6325 µM)	relative viability (BMX-IN-1 + Pemetrexed; first compound 2 µM)
NCI-H1975	0.391	0.424	0.325	0.349	0.285	0.291	0.363	0.287	0.886	0.775	0.688	0.802	0.482	0.321	0.312	0.29	0.279
NCI-H1993	0.446	0.534	0.623	0.583	0.836	0.95	–	0.821	0.849	0.939	1.36	1.15	0.836	0.65	0.669	0.645	0.622
NCI-H2009	0.295	0.35	0.255	0.234	1.19	0.946	0.905	0.765	0.754	0.671	0.771	0.802	0.738	1.08	1.06	1.09	1.07
NCI-H2023	0.723	0.542	0.47	0.402	0.27	0.241	0.265	0.334	0.492	0.528	0.457	0.516	0.542	0.285	0.304	0.226	0.26
NCI-H2085	0.452	0.521	0.458	0.629	0.433	0.389	0.485	0.443	0.764	0.735	0.736	0.749	0.748	0.968	0.823	0.923	0.909
NCI-H2087	0.184	0.227	0.236	0.244	0.876	0.662	0.954	1.15	0.602	0.715	0.691	–	0.724	0.725	0.715	0.669	0.625
NCI-H2126	0.548	0.535	0.563	0.55	0.473	0.481	0.568	0.51	0.879	0.899	0.88	0.905	0.747	0.777	0.7	0.705	0.721
NCI-H2170	0.888	0.958	0.932	0.859	0.319	0.312	0.319	0.307	0.568	0.502	0.433	0.607	0.156	0.273	0.285	0.319	0.243
NCI-H2228	0.394	0.889	0.433	0.648	0.578	0.471	0.443	0.432	0.774	0.601	0.776	1.08	0.715	0.408	0.331	0.396	0.325
NCI-H2347	0.309	0.285	0.297	0.269	0.748	0.576	0.613	0.748	0.659	0.512	0.626	0.619	0.536	0.412	0.298	0.417	0.397
NCI-H2405	0.684	0.688	0.667	0.73	0.505	0.444	0.484	0.393	0.877	0.877	–	–	0.953	1.13	1.19	1.09	0.94
NCI-H3122	0.213	0.253	0.205	0.189	0.689	0.632	0.571	0.675	0.774	0.6	0.582	0.644	0.695	0.203	0.206	0.19	0.19
PC-3 [JPC-3]	0.613	0.692	0.711	0.726	0.812	0.839	0.756	0.788	1.21	0.996	0.93	1.29	0.523	0.933	1.28	1.44	1.04
PC-14	0.815	0.704	0.781	0.793	0.952	0.85	0.774	0.851	0.369	0.318	0.37	0.286	0.265	0.121	0.134	0.145	0.134
RERF-LC-KJ	0.901	0.91	0.791	0.79	0.6	0.64	0.607	0.484	0.994	0.863	0.89	0.965	0.868	0.468	0.448	0.48	0.456
SK-LU-1	0.495	0.481	0.484	0.584	0.579	0.567	0.675	0.481	0.411	0.426	0.447	0.722	0.371	1.13	1.27	0.962	0.95
SW 1573	0.492	0.623	0.528	0.625	0.5	0.512	0.466	0.478	0.57	0.401	0.51	0.456	0.485	0.901	1.02	0.931	0.666
UMC-11	0.731	0.742	0.878	0.713	1.07	0.922	0.892	0.912	0.338	0.392	0.538	0.663	0.377	0.92	0.792	0.754	0.754
